# From US7714134B2, “Compounds and use of tetrahydropyridothiophenes” (4SC AG, priority 2004, dated 2010)
# Experiments:
# [1] = tested on: RKO colon adenocarcinoma cells (RKOp27) arrested by expression of ectopic p27Kip1; assay: Alamar Blue cell viability assay, cell cycle specific mode of action, RKO p27 induced (arrested by Ponasterone A-induced p27Kip1); type: cell-based; conditions: Homo sapiens, RKOp27, 72 h, cells arrested by p27Kip1 induced with 10 μM Ponasterone A, 72 hours incubation
# Outline: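 RKOp27 cells were seeded at 16000 per well in DMEM/10% FCS with 10 μM Ponasterone A to induce p27Kip1 arrest, then given compound dilutions 24 h later for 72 h at 37 °C. Viability was read by Alamar Blue fluorescence (544/590 nm) as % of untreated cells. Arrested cells were compared with proliferating cells grown without inducer.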
# [2] = tested on: RKO (RKOp27) human colon adenocarcinoma cells; assay: Alamar Blue cell viability assay, anti-proliferative/cytotoxic activity, RKO p27 uninduced; type: cell-based; conditions: RKOp27, 72 h, proliferating cells, absence of the inducer Ponasterone A, 72 hours incubation
# Outline: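 RKOp27 colon adenocarcinoma subclones, uninduced, seeded at 4000 cells/well and treated 24 h later with semi-log compound dilutions in DMEM with 10% FCS, in quadruplicate. After 72 h at 37 °C, 5% CO2, viability read by Alamar Blue fluorescence (544/590 nm) relative to untreated cells; IC50 taken from concentration-effect curves.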
SMILES,IC50 [1] [µM],IC50 [2] [µM]
"N#Cc1c(NC(=O)c2ccccc2)sc2c1CCN(C(=O)OCCCc1cccnc1)C2 [Compound 72, 3-Cyano-2-[(1-phenyl-methanoyl)-amino]-4,7-dihydro-5H-thieno[2,3-c]pyridine-6-carboxylic acid 3-pyridin3-yl-propyl ester]",> 60,≤ 3
"N#Cc1c(NC(=O)c2ccccc2)sc2c1CCN(C(=O)NCCc1c[nH]c3ccccc13)C2 [Compound 81, 3-Cyano-2-[(1-phenyl-methanoyl)-amino]-4,7-dihydro-5H-thieno[2,3-c]pyridine-6-carboxylic acid [2-(1H-indol-3-yl)-ethyl]-amide]",> 60,≤ 3
"CCOCCCNC(=O)N1CCc2c(sc(NC(=O)c3ccccc3)c2C#N)C1 [Compound 100, 3-Cyano-2-[(1-phenyl-methanoyl)-amino]-4,7-dihydro-5H-hieno[2,3-c]pyridine-6-carboxylic acid (3-ethoxy-propyl)-amide]",> 100,≤ 3
"N#Cc1c(NC(=O)c2ccccc2)sc2c1CCN(C(=O)CCCn1ccnc1)C2 [Compound 85, N-[3-Cyano-6-(4-imidazol-1-yl-butanoyl)-4,5,6,7-tetrahydro-thieno[2,3-c]pyridin-2-yl]-benzamide]",> 100,≤ 3

# The next lines start with results.
IC50 [1] [µM],SMILES,IC50 [2] [µM]
> 60,"N#Cc1c(NC(=O)c2ccccc2)sc2c1CCN(C(=O)CCn1cnnc1)C2 [Compound 34, N-[3-Cyano-6-(3-[1,2,4]triazol-4-yl-propanoyl)-4,5,6,7-tetrahvdro-thieno[2,3-c]pyridin-2-yl]-benzamide]",≤ 3
> 60,"CCOC(=O)CC(=O)N1CCc2c(sc(NC(=O)c3ccccc3)c2C#N)C1 [Compound 31, 3-{3-Cyano-2-[(1-phenyl-methanoyl)-amino]-4,7-dihydro-5H-thieno[2,3-c]pyridin-6-yl}-3-oxo-propionic acid ethyl ester]",≤ 3
> 100,N#Cc1c(NC(=O)c2ccccc2)sc2c1CCN(C(=O)CCC(N)=O)C2 [Compound 8],≤ 2
